# From patent publication US20080248511A1, “METHODS TO QUENCH LIGHT FROM OPTICAL REACTIONS” (priority 2007, published 2008)
# Like-named read-outs stand apart in the source and are kept apart here.
# Legend:
# Type in all cases: biochemical
# firefly luciferase [1] = biological target: T1, firefly luciferase (Photinus pyralis, UniProt P08659); test: Detergent screen with Tergitol NP-9, firefly luciferase (Example 3); details: 0.06% quencher in reagent solution; 0.5% Tergitol NP-9
# Description: (§1) Unless otherwise specified, materials were obtained from Sigma-Aldrich.
# (§2) The firefly luciferase and Renilla luciferase enzymes were diluted as follows. Firefly luciferase was diluted to 14 ng/ml in Delbecco's Minimal Essential (DMEM) medium (Gibco/Invitrogen) containing 0.1% Prionex®. Renilla luciferase was diluted to 10 ng/ml in DMEM medium containing 0.1% Prionex®.
# (§3) The luciferase reactions were initiated by adding 50 μl of the firefly luciferase or Renilla luciferase enzyme solution to 50 μl of reagent solution. The reactions were performed as described above. The retained firefly luciferase and Renilla luciferase luminescence as well as the selectivity values for each quencher were calculated (Table 3). The values listed are based on 0.06% quencher in the reagent solution.
# Renilla luciferase [2] = biological target: T2, Renilla luciferase (Renilla reniformis, UniProt P27652); test: Quaternary ammonium/phosphonium detergent screen, Renilla luciferase (Example 5); details: final conc. 0.03% detergent
# T2 sequence (P27652 1-311): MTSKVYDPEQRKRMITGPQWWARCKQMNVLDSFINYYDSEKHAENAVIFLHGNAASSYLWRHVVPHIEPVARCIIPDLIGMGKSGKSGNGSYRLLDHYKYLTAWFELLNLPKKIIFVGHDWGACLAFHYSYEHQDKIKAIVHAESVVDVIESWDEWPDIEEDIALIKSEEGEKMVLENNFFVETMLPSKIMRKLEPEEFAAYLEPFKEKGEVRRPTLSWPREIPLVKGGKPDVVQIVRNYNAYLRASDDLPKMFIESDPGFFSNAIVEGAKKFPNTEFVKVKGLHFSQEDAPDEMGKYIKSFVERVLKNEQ
# firefly luciferase [3] = biological target: T1, firefly luciferase; test: Detergent titration with Tergitol NP-9, digitonin or no lysing agent, firefly luciferase (Example 4); details: read-out: Relative Firefly Luc Intensity; for remaining activity at 0.0005 %: 0.0005% detergent; for remaining activity at 0.005 %: 0.0050% detergent; for remaining activity at 0.05 %: 0.0500% detergent
# Renilla luciferase [4] = biological target: T2, Renilla luciferase; test: Detergent screen with Tergitol NP-9, Renilla luciferase (Example 3)
# Description: as §1, §2, §3
# Renilla luciferase [5] = biological target: T2, Renilla luciferase; test: Quaternary ammonium/phosphonium detergent screen, Renilla luciferase (Example 5); details: final conc. 0.10% detergent
# Description: (§4) Each detergent was added at 0.2% to a reagent solution containing 50 mM Tricine pH 8.3, 3.5 mM MgSO4, 1 mM CDTA, 30 mM thiourea and 0.5% Tergitol NP-9. This solution or one not containing a detergent inhibitor was used to resuspend the Bright-Glo™ luciferin substrate (Promega).
# (§5) The luciferase reactions were initiated by adding 100 μl of the firefly luciferase or Renilla luciferase enzyme solutions to 100 μl of reagent solution. The reactions were performed as described above. […] The detergent concentrations listed refer to the final concentration in the reaction.
# Renilla luciferase [6] = biological target: T2, Renilla luciferase; test: Detergent titration with Tergitol NP-9, digitonin or no lysing agent, Renilla luciferase (Example 4); details: for remaining activity at 0.0005 % / remaining activity at 0.005 % / remaining activity at 0.05 %: read-out: Relative Renilla Luc Intensity
# firefly luciferase [7] = biological target: T1, firefly luciferase; test: Quaternary ammonium/phosphonium detergent screen, firefly luciferase (Example 5); details: final conc. 0.10% detergent; Tergitol NP-9 present; read-out: Retained Firefly Luciferase Luminescence (%)
# Description: as §4, §5
# firefly luciferase [8] = biological target: T1, firefly luciferase; test: as above; details: final conc. 0.03% detergent; Tergitol NP-9 present; read-out: Retained Firefly Luciferase Luminescence (%)
# [9] = Tergitol NP-9 present, read-out: Retained Renilla Luciferase Luminescence (%)
# T1 sequence (P08659 whole entry): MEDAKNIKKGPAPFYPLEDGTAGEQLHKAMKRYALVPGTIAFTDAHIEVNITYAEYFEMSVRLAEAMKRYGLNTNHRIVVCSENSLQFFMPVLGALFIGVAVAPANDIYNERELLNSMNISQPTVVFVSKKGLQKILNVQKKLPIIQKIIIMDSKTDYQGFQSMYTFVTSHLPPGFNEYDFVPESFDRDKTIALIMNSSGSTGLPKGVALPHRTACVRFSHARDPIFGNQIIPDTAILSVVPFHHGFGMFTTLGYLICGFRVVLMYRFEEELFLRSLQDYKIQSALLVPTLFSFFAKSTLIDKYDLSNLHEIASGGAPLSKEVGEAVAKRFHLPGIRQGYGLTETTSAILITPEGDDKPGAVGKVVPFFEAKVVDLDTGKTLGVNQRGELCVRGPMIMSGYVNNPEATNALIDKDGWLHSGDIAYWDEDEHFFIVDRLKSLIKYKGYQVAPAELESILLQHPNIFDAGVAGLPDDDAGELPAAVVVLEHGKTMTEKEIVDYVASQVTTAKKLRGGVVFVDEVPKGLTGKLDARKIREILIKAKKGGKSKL
smiles,measurement,setting,value
CCCCCCCCCCCC[N+](C)(C)Cc1ccccc1.[Br-] [Benzyldimethyldodecylammonium bromide],Retained Firefly Luminescence (%),firefly luciferase [1],119%
same,Selectivity Value,Renilla luciferase [2],4
same,remaining activity at 0.03 %,Renilla luciferase [2]; [9],25%
same,remaining activity at 0.0005 %,firefly luciferase [3]; Dig,111%
same,remaining activity at 0.0005 %,firefly luciferase [3]; Terg,96%
same,remaining activity at 0.0005 %,firefly luciferase [3]; Water,116%
same,remaining activity at 0.005 %,firefly luciferase [3]; Dig,139%
same,remaining activity at 0.005 %,firefly luciferase [3]; Terg,101%
same,remaining activity at 0.005 %,firefly luciferase [3]; Water,155%
same,remaining activity at 0.05 %,firefly luciferase [3]; Dig (20 μg/ml digitonin),37%
same,remaining activity at 0.05 %,firefly luciferase [3]; Terg (0.5% Tergitol NP-9),50%
same,remaining activity at 0.05 %,firefly luciferase [3]; Water (no lysing agent),79%
same,Retained Renilla Luminescence (%),"Renilla luciferase [4]; 0.06% quencher in reagent solution, 0.5% Tergitol NP-9",22%
same,lowering of selectivity value relative to the screen without Tergitol NP-9,Renilla luciferase [4]; Tergitol NP-9 in the reagent solution,about 50 fold
same,Selectivity Value,"Renilla luciferase [4]; retained firefly / retained Renilla, 0.06% quencher, 0.5% Tergitol NP-9",5.4
same,Selectivity Value,Renilla luciferase [5],48.5
same,remaining activity at 0.1 %,Renilla luciferase [5]; [9],2%
same,Selective Inhibition (Ff Luc Inh/Ren Luc Inh),"Renilla luciferase [6]; 0.0005% detergent, Dig",1.8
same,remaining activity at 0.0005 %,"Renilla luciferase [6]; 0.0005% detergent, Dig",61%
same,Selective Inhibition (Ff Luc Inh/Ren Luc Inh),"Renilla luciferase [6]; 0.0005% detergent, Terg",1.1
same,remaining activity at 0.0005 %,"Renilla luciferase [6]; 0.0005% detergent, Terg",90%
same,Selective Inhibition (Ff Luc Inh/Ren Luc Inh),"Renilla luciferase [6]; 0.0005% detergent, Water",2.2
same,remaining activity at 0.0005 %,"Renilla luciferase [6]; 0.0005% detergent, Water",54%
same,Selective Inhibition (Ff Luc Inh/Ren Luc Inh),"Renilla luciferase [6]; 0.0050% detergent, Dig",29
same,remaining activity at 0.005 %,"Renilla luciferase [6]; 0.0050% detergent, Dig",5%
same,Selective Inhibition (Ff Luc Inh/Ren Luc Inh),"Renilla luciferase [6]; 0.0050% detergent, Terg",1.7
same,remaining activity at 0.005 %,"Renilla luciferase [6]; 0.0050% detergent, Terg",58%
same,Selective Inhibition (Ff Luc Inh/Ren Luc Inh),"Renilla luciferase [6]; 0.0050% detergent, Water",36
same,remaining activity at 0.005 %,"Renilla luciferase [6]; 0.0050% detergent, Water",4%
same,remaining activity at 0.05 %,"Renilla luciferase [6]; 0.0500% (w:v) detergent, Terg (0.5% Tergitol NP-9)",2%
same,Selective Inhibition (Ff Luc Inh/Ren Luc Inh),"Renilla luciferase [6]; 0.0500% detergent, Dig",1575
same,remaining activity at 0.05 %,"Renilla luciferase [6]; 0.0500% detergent, Dig (20 μg/ml digitonin)",0.02%
same,Selective Inhibition (Ff Luc Inh/Ren Luc Inh),"Renilla luciferase [6]; 0.0500% detergent, Terg",21
same,Selective Inhibition (Ff Luc Inh/Ren Luc Inh),"Renilla luciferase [6]; 0.0500% detergent, Water",3627
same,remaining activity at 0.05 %,"Renilla luciferase [6]; 0.0500% detergent, Water (no lysing agent)",0.02%
same,remaining activity at 0.1 %,firefly luciferase [7],97%
same,remaining activity at 0.03 %,firefly luciferase [8],100%
